According to patent US10087466B2 (priority 2016, dated 2018):
Marks after values point to notes of the source that are not given here.

How the values were obtained:
Format in all cases: in vivo
weaned pigs = assay: Pig growth measurement (body weight, feed intake, feed/gain) in weaned pigs; conditions: mean±SD
[1] = test system: pig antioxidative function; assay: Serum antioxidative function measurement (T-AOC, GPx, SOD, MDA) with kits; conditions: diet + 0.3 mg/kg Na2SeO3 or 0.14 mg/kg nanostructure, mean±SD
Serum IgG and IgM = Serum IgG and IgM by turbidimetric inhibition immuno assay; conditions: pig serum; diet + 0.3 mg/kg Na2SeO3 or 0.14 mg/kg nanostructure; mean±SD
[2] = test system: Serum inflammatory cytokine TNF-α, IL-2 and IL-6; assay: Serum inflammatory cytokines (TNF-α, IL-2, IL-6) by ELISA; conditions: pig serum; diet + 0.3 mg/kg Na2SeO3 or 0.14 mg/kg nanostructure; mean±SD
[3] = day 28 to 67, diet + 0.3 mg/kg Na2SeO3 or 0.14 mg/kg nanostructure

O=[Se](O)O [sodium selenite]
Final weight (weaned pigs; 67-day-old, basic diet + 0.3 mg/kg Na2SeO3 (group 1) or 0.14 mg/kg biogenic elemental selenium nanostructure (group 2)): 24.17 ± 0.76^a kg
Average daily feed intake (weaned pigs; [3]): 654.17 ± 37.64 g
Average daily gain (weaned pigs; [3]): 411.54 ± 20.63^a g
Feed/gain ratio (weaned pigs; [3]): 1.59 ± 0.01^b
GPx [1]: 238.56 ± 13.07^a U/mL
MDA [1]: 3.31 ± 0.10^a nmol/mL
SOD [1]: 147.94 ± 5.89^a U/mL
T-AOC [1]: 2.51 ± 0.16^a U/mL
IgG (Serum IgG and IgM): 2.66 ± 0.23^ab g/L
IgM (Serum IgG and IgM): 0.71 ± 0.07^a g/L
IL-2 [2]: 108.19 ± 10.26^ab ng/L
IL-6 [2]: 571.10 ± 38.62^ab ng/L
TNF-α [2]: 41.86 ± 4.50^ab ng/L
